The record followed here is article PMC4990177, “ABCB1 Overexpression Is a Key Initiator of Resistance to Tyrosine Kinase Inhibitors in CML Cell Lines” (PLoS ONE, 2016).

Experiment [1] concerns K562 cells. Nature of the experiment: Cell viability assay, Annexin V/7-AAD, 72 h, K562 cells.
Method: (§1) Cells were washed and resuspended in fresh culture media before culture in 24-well plates (Thermo Fisher Scientific, Waltham, MA, USA) in the presence of TKI at a density of 2×10^5 cells/mL. Plates were seeded with 1 mL of cell suspension in triplicate, placed in sterilised containers and incubated for 72 h before cell viability determination with 7-aminoactinomycin D (7-AAD; Invitrogen Life Technologies, Carlsbad, CA, USA) and Phycoerythrin (PE)-conjugated Annexin V antibody (BD Biosciences, Franklin Lakes, NJ, USA). Flow cytometric analysis was conducted with an FC500 flow cytometer (Beckman Coulter, Miami, FL, USA) and FCS Express 4 software (De Novo Software, Los Angeles, CA, USA).
Error bars represent SEM.
Experiment [2] relates to K562-Dox cells. Nature of the experiment: Cell viability assay, Annexin V/7-AAD, 72 h, K562-Dox cells.
Method: as §1
Error bars represent SEM.
The subject of experiment [3] is K562 cells. Nature of the experiment: % live cells during nilotinib dose escalation, K562 resistance intermediates. The format is cell-based.
Experiment [4] concerns K562-Dox cells. Nature of the experiment: % live cells during nilotinib dose escalation, K562-Dox resistance intermediates. The format is cell-based.
The test system of a further experiment is LYN mRNA. Nature of the experiment: LYN mRNA expression by RQ-PCR in nilotinib resistant K562 cells. The format is cell-based. The note with it: K562 #6 NIL cells and later intermediates, duration of nilotinib escalation.

As to `Cc1nc(Nc2ncc(C(=O)Nc3c(C)cccc3Cl)s2)cc(N2CCN(CCO)CC2)n1` [dasatinib], the “survival (% live cells)” value in the experiment on K562 cells [1] (K562 #6 NIL cells, 500 nM dasatinib) is given as 74%; in the experiment on K562 cells [1] (K562 #10 NIL cells, 500 nM dasatinib) it was 74%; in the experiment with K562 cells [1] (K562 control cells, 500 nM dasatinib), 21%; in the experiment with K562-Dox cells [2] (K562-Dox #5 NIL cells, 100 nM dasatinib), 60%; in the experiment with K562-Dox cells [2] (K562-Dox control cells, 100 nM dasatinib), 5%.
For `Cc1ccc(NC(=O)c2ccc(CN3CCN(C)CC3)cc2)cc1Nc1nccc(-c2cccnc2)n1` [imatinib], the “survival (% live cells)” value with K562 cells [1] (K562 #6 NIL cells, 5 μM imatinib) is on record as 92%; in the experiment with K562 cells [1] (K562 #10 NIL cells, 5 μM imatinib) it was 89%; with K562 cells [1] (K562 control cells, 5 μM imatinib), 29%; in the experiment with K562-Dox cells [2] (K562-Dox #5 NIL cells, 5 μM imatinib) it was 79%; in the experiment on K562-Dox cells [2] (K562-Dox control cells, 5 μM imatinib), 31%.
In the case of `Cc1cn(-c2cc(NC(=O)c3ccc(C)c(Nc4nccc(-c5cccnc5)n4)c3)cc(C(F)(F)F)c2)cn1` [nilotinib], the “% Live Cells” value in the experiment with K562 cells [3] (K562 intermediate #1, cultured in 15 nM NIL, 10 days in culture) is listed as 95.0%; with K562 cells [3] (K562 intermediate #2, cultured in 25 nM NIL, 11 days in culture), 99.1%; with K562 cells [3] (K562 intermediate #3, cultured in 50 nM NIL, 10 days in culture) it was 96.7%; in the experiment on K562 cells [3] (K562 intermediate #4, cultured in 75 nM NIL, 14 days in culture), 93.7%; in the experiment on K562 cells [3] (K562 intermediate #5, cultured in 100 nM NIL, 12 days in culture) it was 94.6%; in the experiment with K562 cells [3] (K562 intermediate #6, cultured in 125 nM NIL, 28 days in culture (prolonged exposure)), ~ 80%. The “% Live Cells” value in the experiment on K562 cells [3] (K562 intermediate #6, cultured in 125 nM NIL, 28 days in culture (prolonged exposure), listed as NIL) is given as 83.6%; in the experiment with K562 cells [3] (K562 intermediate #7, cultured in 140 nM NIL, 17 days in culture) it was 87.4%; in the experiment on K562 cells [3] (K562 intermediate #8, cultured in 300 nM NIL, 12 days in culture), 93.3%; with K562 cells [3] (K562 intermediate #9, cultured in 400 nM NIL, 14 days in culture), 90.8%; in the experiment on K562 cells [3] (K562 intermediate #10, cultured in 2 μM NIL, continuous culture), 94.1%; in the experiment with K562-Dox cells [4] (K562-Dox intermediate #1, cultured in 15 nM NIL, 11 days in culture), 99.6%. Moreover, the “% Live Cells” value with K562-Dox cells [4] (K562-Dox intermediate #2, cultured in 30 nM NIL, 10 days in culture) worked out at 96.9%; in the experiment on K562-Dox cells [4] (K562-Dox intermediate #3, cultured in 60 nM NIL, 11 days in culture) it was 98.5%; with K562-Dox cells [4] (K562-Dox intermediate #4, cultured in 100nM NIL, 12 days in culture) it was 91.3%; in the experiment with K562-Dox cells [4] (K562-Dox intermediate #5, cultured in 125 nM NIL, 81 days in culture) it was 73.6%; in the experiment on K562-Dox cells [4] (K562-Dox intermediate #6, cultured in 200 nM NIL, 16 days in culture) it was 76.6%; in the experiment on K562-Dox cells [4] (K562-Dox intermediate #7, cultured in 1 μM NIL, 19 days in culture) it was 75.8%. In addition, the “% Live Cells” value with K562-Dox cells [4] (K562-Dox intermediate #8, cultured in 2 μM NIL, continuous culture) is 90.7%. The “LYN mRNA increase compared with control cells” value with LYN mRNA was 15–18 fold. Besides, the “survival (% live cells)” value amounted to 87% in the experiment on K562 cells [1] (K562 #6 NIL cells, 1000 nM nilotinib); 85% in the experiment on K562 cells [1] (K562 #10 NIL cells, 1000 nM nilotinib); 19% in the experiment with K562 cells [1] (K562 control cells, 1000 nM nilotinib); 74% in the experiment on K562-Dox cells [2] (K562-Dox #5 NIL cells, 1000 nM nilotinib); 8% in the experiment on K562-Dox cells [2] (K562-Dox control cells, 1000 nM nilotinib).
